{
  "source": "paper PMC12081870",
  "about": "(Communications Biology, 2025)",
  "key": {"Abp1": {"test_system": "Abp1", "assay": "Lifetime of Abp1-GFP patches at endocytic sites", "type": "cell-based, Saccharomyces cerevisiae", "details": "las17 P387A background vs wild type; wt n = 183, P387A n = 96", "description": "(§1) For live-cell imaging, cells expressing tagged proteins were visualised after growing to early log phase. Analysis was carried out at room temperature (22 °C). Time-lapse of wild-type and mutated Las17-GFP was acquired using OMX DeltaVision V4 and a 60×/1.42 NA objective. Images were taken simultaneously on separate scientific complementary metal oxide semiconductor (sCMOS) cameras (30 msec exposure). Seven 250 nm sections were acquired every 0.5 sec (241 time points). The stacks were then deconvolved and processed, using SoftWorx. Protein localisation and lifetime was analysed from those projections. Fiji software was used to assemble movies and kymographs, to track and record behaviour of individual spots. Graphs show mean ± SD. Sample size Fig. 9A wt n = 67, P387A n = 52; 9B wt n = 183, P387A n = 96; 9 C wt n = 156, P387A n = 132. Where appropriate data was tested for normal distribution using Graphpad Prism software, and then subjected to the appropriate test as described in the methods for each experiment type.\n(§2) Lifetime and behaviour of cell reporter proteins using fluorescence microscopy: Graphs show mean ± SD. Sample size Fig. 9A wt n = 67, P387A n = 52; 9B wt n = 183, P387A n = 96; 9 C wt n = 156, P387A n = 132. Unpaired Mann Whitney statistical analysis of patch lifetimes was carried out using Graphpad Prism software, **** denotes two tailed P value of <0.0001."}, "[1]": {"test_system": "Las17 and las17 P387A expressing yeast strains", "assay": "Latrunculin-A halo assay on yeast", "type": "cell-based, Saccharomyces cerevisiae", "details": "sole Las17 in cells, words", "description": "(§3) Supplementary Information.\n(§4) Methods used in Supplementary Data\n(§5) Yeast strains, growth and staining\n(§6) Yeast plasmids used in this study are listed in Supplementary table 1 and yeast strains used in Supplementary table 2. Unless stated otherwise, cells were grown with rotary shaking at 30°C in liquid YPD medium (1% yeast extract, 2% Bacto-peptone, 2% glucose supplemented with 40 μg/ml adenine) or in synthetic medium (0.67% yeast nitrogen base, 2% glucose) with appropriate supplements. Growth assays used solid medium with 2% agar added to above. All strains carrying fluorescent tags have growth properties similar to isogenic control strains with the exception of strains carrying dual reporters where lifetimes were longer for both wild type and mutant strains (in Figure 9D). Point mutations in LAS17 were generated using site directed mutagenesis (Agilent). DNA cassettes carrying mutations for integration were transformed into KAY1801. Mutant colonies were counter-selected on minimal medium, containing 0.005% uracil and 0.1% 5’-Fluoroorotic Acid (5-FOA; Melford labs). […]\n(§7) expressing strains on plates on which a disc carrying 10 µl of latrunculin-A of varying concentrations was placed (white disc). […] They were then scored according to the extent of uptake and categorised according to the key shown. >100 cells were visualised for each strain in each of 3 independent experiments. […]"}, "yeast cells": {"test_system": "yeast cells", "assay": "Lucifer yellow bulk phase endocytosis", "type": "cell-based, Saccharomyces cerevisiae", "details": "90 minutes at 30°C, vs wild type", "description": "as §3, §4, §5, §6, §7"}, "[2]": {"test_system": "Arc15-mCherry (Arp2/3 complex)", "assay": "Lifetime of Arc15-mCherry patches at endocytic sites", "type": "cell-based, Saccharomyces cerevisiae", "details": "las17 P387A background vs wild type; wt n = 156, P387A n = 132", "description": "as §1, §2"}, "[3]": {"test_system": "Las17-GFP and Arc15-mCherry", "assay": "Dual-reporter lifetimes, Las17-GFP and Arc15-mCherry co-localisation", "type": "cell-based, Saccharomyces cerevisiae", "design": "lifetime, GFP alone / lifetime, GFP and RFP / lifetime, RFP: unit not given here", "description": "A size bar for each set of kymographs is shown on the upper right of each set. For (A) and (C) size bar is 100 nm and for B is 200 nm. Error bars are standard deviation. […] The site of interest is labelled in the first two time panels with a white arrow. Exposure 0.5 sec with 1 second time lapse. 120 s recorded. […] Error bars are standard deviation.\nIndividual spots were analysed for lifetimes and behaviours.\nYeast strains used in this study are listed in Supplementary table 2 and plasmids used in Supplementary table 1. Unless stated otherwise, cells were grown with rotary shaking at 30 °C in liquid YPD medium (1% yeast extract, 2% Bacto-peptone, 2% glucose supplemented with 40 μg/ml adenine) or in synthetic medium (0.67% yeast nitrogen base, 2% glucose) with appropriate supplements. […] DNA cassettes carrying mutations for integration were transformed into KAY1801. Mutant colonies were counter-selected on minimal medium, containing 0.005% uracil and 0.1% 5’-Fluoroorotic Acid (5-FOA; Melford laboratories). Allele exchange, in growing Ura3^-, 5-FOA resistant colonies, was confirmed by PCR and sequencing.\nas §1, with “Time-lapse of wild-type and mutated Las17-GFP was acquired using OMX DeltaVision V4 and a 60×/1.42 NA objective.” left out, “Sample size Fig. 9A wt n = 67, P387A n = 52; 9B wt n = 183, P387A n = 96; 9 C wt n = 156, P387A n = 132.” left out"}, "las17 P387A yeast strain": {"test_system": "las17 P387A yeast strain", "assay": "Growth of yeast, temperature sensitivity", "type": "cell-based, Saccharomyces cerevisiae", "details": "range of temperatures, sole Las17 in cells", "description": "as §3, §4, §5, §6, §7"}, "[4]": {"test_system": "F-actin organisation in yeast cells", "assay": "Rhodamine-phalloidin staining, actin organisation in cells", "type": "cell-based, Saccharomyces cerevisiae", "details": "vs wild type cells", "description": "as §3, §4, §5, §6, §7"}, "Sla1 third SH3 domain": {"molecular_target": "Sla1 third SH3 domain", "design": "method as in PMID 17244534", "details": "third SH3 domain of Sla1; ref [10]; read-out: binding to ubiquitin affinity; cited from earlier work"}, "[5]": {"details": "Las17-GFP / Arc15-mCherry dual-label strain"}, "[6]": {"details": "sheet Fig9E, individual endocytic patches, one per cell"}},
  "note": "Where “and” joins values, the source holds several entries; their conditions need not be identical. Identical values can stand only once.",
  "data": [
    {"substance": "las17 P387A: full-length Las17 with P387A, integrated in yeast in place of wild type LAS17", "values": [
      {"measurement": "lifetime of Abp1 patches", "setting": "Abp1", "result": "increased lifetime"},
      {"measurement": "sensitivity to latrunculin-A", "setting": "[1]", "result": "increase in sensitivity to latrunculin-A"},
      {"measurement": "bulk phase endocytosis", "setting": "yeast cells", "result": "slower than in wild type cells"},
      {"measurement": "lifetime of Arc15 patches", "setting": "[2]", "result": "increased lifetime"},
      {"measurement": "duration of co-localization of Las17-GFP and Arc15-mCherry", "setting": "[3]; [5]", "result": 28, "unit": "s"},
      {"measurement": "time of Arc15-mCherry alone after Las17 disassembly", "setting": "[3]; [5]", "result": 15, "unit": "s"},
      {"measurement": "time of Las17 at the site before Arc15 is recruited", "setting": "[3]; [5]", "result": "about 40 s"},
      {"measurement": "lifetime, GFP alone", "setting": "[3]; [6]", "result": "30 and 22 and 44 and 66"},
      {"measurement": "lifetime, GFP and RFP", "setting": "[3]; [6]", "result": "46 and 78 and 88"},
      {"measurement": "lifetime, RFP", "setting": "[3]; [6]", "result": "62 and 92 and 108"},
      {"measurement": "growth", "setting": "las17 P387A yeast strain", "result": "able to support growth across a range of temperatures"},
      {"measurement": "actin organisation in cells", "setting": "[4]", "result": "less well polarised"}
    ]},
    {"substance": "ubiquitin", "values": [
      {"measurement": "Kd", "setting": "Sla1 third SH3 domain", "result": 39, "unit": "µM"}
    ]}
  ]
}
